Assay results reported in patent publication US11390624B2, “Pyrazolopyridines and triazolopyridines as A2A / A2B inhibitors” (Incyte Corporation, priority 2019, dated 2022).

How the values were obtained:
[1] = molecular target: Adenosine A2A receptor (Tag-lite Adenosine A2A labeled cells) (Homo sapiens (Human), UniProt P29274); test: A2A Tag-lite HTRF Assay; type: binding; conditions: displacement of Adenosine A2A Receptor Red antagonist fluorescent ligand, 12.5 nM
From the text: The final concentration of DMSO was 1%.

[2] = molecular target: human adenosine A2B receptor (Homo sapiens (Human), UniProt P29275); test: Adenosine A2B Receptor Cyclic AMP GS Assay; type: cell-based; conditions: HEK-293 cells, agonist NECA at 12 nM, cAMP accumulation; read-out: A2B—cAMP_EC50
Sequence of human adenosine A2B receptor (P29275 whole entry): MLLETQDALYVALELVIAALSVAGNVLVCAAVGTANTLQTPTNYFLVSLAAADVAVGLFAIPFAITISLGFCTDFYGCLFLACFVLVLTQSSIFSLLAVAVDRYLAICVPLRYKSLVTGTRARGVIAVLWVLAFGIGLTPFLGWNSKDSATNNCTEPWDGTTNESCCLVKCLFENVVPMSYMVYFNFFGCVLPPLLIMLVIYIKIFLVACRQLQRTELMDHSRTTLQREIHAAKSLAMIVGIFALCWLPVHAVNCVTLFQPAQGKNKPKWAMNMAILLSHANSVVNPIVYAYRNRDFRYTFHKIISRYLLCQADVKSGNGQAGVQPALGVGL
Protocol: Stably transfected HEK-293 cells expressing the human adenosine A2B receptor (Perkin Elmer) were maintained in MEM culture medium with 10% FBS and 100 μg/mL Geneticin (Life Technologies). 18 to 24 hours prior to assay, geneticin was removed from culture. The cisbio cAMP-GS Dynamic kit utilizing the FRET (Fluorescence Resonance Energy Transfer) technology was used to measure cAMP accumulation in the cells. Compounds of the present disclosure at an appropriate concentration were mixed with 10000 cells/well in white 96 well half area plates (Perkin Elmer) for 30 min at room temperature gently shaking. Agonist, NECA (R&D Technologies) at 12 nM was added to each well for 60 min at room temperature gently shaking. Detection reagents, d2-labeled cAMP (acceptor) and anti-cAMP cryptate (donor) were added to each well for 60 min at RT gently shaking. Plates were read on Pherastar (BMG Labtech), fluorescence ratio 665/620 was calculated and EC50 determination was performed by fitting the curve of percent of control versus the log of the compound concentration using GraphPad Prism.

Sequence of Adenosine A2A receptor (Tag-lite Adenosine A2A labeled cells) (P29274 whole entry): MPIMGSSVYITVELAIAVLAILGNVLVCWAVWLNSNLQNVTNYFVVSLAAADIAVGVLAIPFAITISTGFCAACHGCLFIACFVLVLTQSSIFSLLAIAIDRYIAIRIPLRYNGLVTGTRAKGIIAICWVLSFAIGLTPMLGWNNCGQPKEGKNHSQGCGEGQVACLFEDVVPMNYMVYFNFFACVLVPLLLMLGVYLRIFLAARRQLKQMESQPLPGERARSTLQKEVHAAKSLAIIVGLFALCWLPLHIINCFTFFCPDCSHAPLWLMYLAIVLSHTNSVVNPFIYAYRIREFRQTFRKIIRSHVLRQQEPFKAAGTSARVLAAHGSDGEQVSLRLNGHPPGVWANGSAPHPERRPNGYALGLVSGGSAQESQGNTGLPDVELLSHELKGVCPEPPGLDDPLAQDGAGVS

`Cn1nccc1-c1c(-c2cccc(C#N)c2F)nc(N)c2nn(Cc3ccccn3)nc12` [Example 39, 3-(4-amino-7-(1-methyl-1H-pyrazol-5-yl)-2-(pyridin-2-ylmethyl)-2H-[1,2,3]triazolo[4,5-c]pyridin-6-yl)-2-fluorobenzonitrile] showed a Ki [1] of no more than 10 nM and an EC50 [2] of no more than 10 nM.
For `CC(C)n1nccc1-c1c(-c2cccc(C#N)c2F)nc(N)c2nn(Cc3ccccn3)nc12` [Example 40, 3-(4-amino-7-(1-isopropyl-1H-pyrazol-5-yl)-2-(pyridin-2-ylmethyl)-2H-[1,2,3]triazolo[4,5-c]pyridin-6-yl)-2-fluorobenzonitrile], the Ki [1] was no more than 10 nM and the EC50 [2] was no more than 10 nM.
`Cc1ncoc1-c1c(-c2cccc(C#N)c2F)nc(N)c2nn(Cc3ccccn3)nc12` [Example 41, 3-(4-amino-7-(4-methyloxazol-5-yl)-2-(pyridin-2-ylmethyl)-2H-[1,2,3]triazolo[4,5-c]pyridin-6-yl)-2-fluorobenzonitrile] showed a Ki [1] of no more than 10 nM and an EC50 [2] of no more than 10 nM.
`Cc1nc(CO)c(-c2c(-c3cccc(C#N)c3F)nc(N)c3nn(Cc4ccccn4)nc23)o1` [Example 42, 3-(4-amino-7-(4-(hydroxymethyl)-2-methyloxazol-5-yl)-2-(pyridin-2-ylmethyl)-2H-[1,2,3]triazolo[4,5-c]pyridin-6-yl)-2-fluorobenzonitrile] was tested, and the Ki [1] was no more than 10 nM and the EC50 [2] was 10 to 100 nM.
With `N#Cc1cccc(-c2nc(N)c3nn(Cc4ccccn4)nc3c2-c2ccc3nccnc3c2)c1F` [Example 43, 3-(4-amino-2-(pyridin-2-ylmethyl)-7-(quinoxalin-6-yl)-2H-[1,2,3]triazolo[4,5-c]pyridin-6-yl)-2-fluorobenzonitrile] the Ki [1] was no more than 10 nM and the EC50 [2] was 100 to 1000 nM.
Work on `Cn1ccc(Cn2nc3c(N)nc(-c4cccc(C#N)c4)c(-c4ccncn4)c3n2)n1` [Example 44, 3-(4-amino-2-((1-methyl-1H-pyrazol-3-yl)methyl)-7-(pyrimidin-4-yl)-2H-[1,2,3]triazolo[4,5-c]pyridin-6-yl)benzonitrile] yielded a Ki [1] of no more than 10 nM and an EC50 [2] of no more than 10 nM.
With `Cc1ncoc1-c1c(-c2cccc(C#N)c2)nc(N)c2nn(Cc3ccn(C)n3)nc12` [Example 45, 3-(4-amino-2-((1-methyl-1H-pyrazol-3-yl)methyl)-7-(4-methyloxazol-5-yl)-2H-[1,2,3]triazolo[4,5-c]pyridin-6-yl)benzonitrile] the Ki [1] was no more than 10 nM and the EC50 [2] was no more than 10 nM.
With `Cc1ncoc1-c1c(-c2cccc(C#N)c2)nc(N)c2nn(C(C)c3ccccn3)nc12` (stereo not shown) [Example 46, 3-(4-amino-7-(4-methyloxazol-5-yl)-2-(1-(pyridin-2-yl)ethyl)-2H-[1,2,3]triazolo[4,5-c]pyridin-6-yl)benzonitrile] the Ki [1] was no more than 10 nM and the EC50 [2] was no more than 10 nM.
Compound `CC(c1ccccn1)n1nc2c(N)nc(-c3cccc(C#N)c3)c(-c3ccncn3)c2n1` (stereo not shown) [Example 47, 3-(4-amino-2-(1-(pyridin-2-yl)ethyl)-7-(pyrimidin-4-yl)-2H-[1,2,3]triazolo[4,5-c]pyridin-6-yl)benzonitrile] has a Ki [1] of no more than 10 nM and an EC50 [2] of 100 to 1000 nM.
Compound `Cc1ncoc1-c1c(-c2cccc(C#N)c2)nc(N)c2nn(CCc3ccccn3)nc12` [Example 48, 3-(4-amino-7-(4-methyloxazol-5-yl)-2-(2-(pyridin-2-yl)ethyl)-2H-[1,2,3]triazolo[4,5-c]pyridin-6-yl)benzonitrile] has a Ki [1] of no more than 10 nM and an EC50 [2] of 10 to 100 nM.
For `Cc1ncoc1-c1c(-c2cccc(C#N)c2F)nc(N)c2nn(CCc3ccccn3)nc12` [Example 49, 3-(4-amino-7-(4-methyloxazol-5-yl)-2-(2-(pyridin-2-yl)ethyl)-2H-[1,2,3]triazolo[4,5-c]pyridin-6-yl)-2-fluorobenzonitrile], the Ki [1] was no more than 10 nM and the EC50 [2] was 10 to 100 nM.
